Tests used:
HDAC6 = molecular target: T1, HDAC6 (Homo sapiens, UniProt Q9UBN7); assay: In vitro HDAC inhibition fluorescence assay, HDAC6; format: biochemical
T1 construct: purchased BPS Bioscience
T1 sequence (Q9UBN7 1-1215): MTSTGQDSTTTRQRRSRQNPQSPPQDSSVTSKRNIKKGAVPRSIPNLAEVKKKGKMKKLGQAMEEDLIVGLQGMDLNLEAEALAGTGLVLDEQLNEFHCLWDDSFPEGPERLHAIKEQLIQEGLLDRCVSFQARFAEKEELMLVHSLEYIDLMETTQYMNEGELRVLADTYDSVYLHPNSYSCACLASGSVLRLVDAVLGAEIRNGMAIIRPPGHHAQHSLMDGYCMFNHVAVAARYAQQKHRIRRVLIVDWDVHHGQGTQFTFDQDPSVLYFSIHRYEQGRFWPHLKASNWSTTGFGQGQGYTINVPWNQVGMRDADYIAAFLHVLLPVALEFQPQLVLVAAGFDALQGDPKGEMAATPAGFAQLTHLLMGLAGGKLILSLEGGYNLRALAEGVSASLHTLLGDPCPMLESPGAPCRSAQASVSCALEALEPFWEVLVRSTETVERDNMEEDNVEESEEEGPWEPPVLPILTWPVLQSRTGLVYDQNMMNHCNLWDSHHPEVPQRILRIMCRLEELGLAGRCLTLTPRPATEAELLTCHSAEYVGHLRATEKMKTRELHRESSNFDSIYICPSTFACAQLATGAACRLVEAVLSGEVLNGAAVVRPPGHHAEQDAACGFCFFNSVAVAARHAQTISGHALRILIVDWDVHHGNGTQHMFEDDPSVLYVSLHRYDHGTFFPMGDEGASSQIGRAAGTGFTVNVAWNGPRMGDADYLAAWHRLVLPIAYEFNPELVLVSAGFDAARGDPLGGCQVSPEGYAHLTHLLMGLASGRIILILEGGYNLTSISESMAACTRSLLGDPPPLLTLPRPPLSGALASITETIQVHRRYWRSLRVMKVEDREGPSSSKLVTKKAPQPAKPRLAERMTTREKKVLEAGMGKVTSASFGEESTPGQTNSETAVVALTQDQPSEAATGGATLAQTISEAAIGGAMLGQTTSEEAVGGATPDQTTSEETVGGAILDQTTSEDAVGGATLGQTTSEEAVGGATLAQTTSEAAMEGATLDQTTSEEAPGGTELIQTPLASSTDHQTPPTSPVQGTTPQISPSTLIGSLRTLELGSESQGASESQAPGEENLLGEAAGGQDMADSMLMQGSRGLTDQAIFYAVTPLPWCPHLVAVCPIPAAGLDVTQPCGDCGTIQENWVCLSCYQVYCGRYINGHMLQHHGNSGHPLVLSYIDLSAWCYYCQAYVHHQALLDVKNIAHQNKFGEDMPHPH
Protocol: (§1) All of the HDAC enzymes were purchased from BPS Bioscience. In vitro HDAC inhibition assays were conducted as previously described. In brief, 20 μL of recombinant HDAC enzyme solution (HDAC1-9, 11) was mixed with various concentrations of the tested compound (20 μL). The mixture was incubated at 37 °C for 1 h, and then, 10 μL of fluorogenic substrate (Boc-Lys (acetyl)-AMC for HDAC1, 2, 3 and 6; Boc-Lys (trifluoroacetyl)AMC for HDAC4, 5, 7, 8, 9 and 11) was added to achieve a final concentration of 50 μM. After incubation at 37 °C for 2 h, the catalysis was stopped by the addition of 10 μL of developer containing 30 mg/mL trypsin and 6 μM trichostatin A (TSA). Then, 30 min later, the fluorescence intensity was measured using a microplate reader at excitation and emission wavelengths of 360 and 460 nm, respectively. The inhibition ratios were calculated from the fluorescence intensity readings of tested wells relative to those of control wells, and the IC50 curves and values were determined by GraphPad Prism 6.0, using the “log(inhibitor) vs. normalized response-variable slope” function.

MV4-11 cells = assay: Western blot analysis; format: cell-based; settings: 24 h
Protocol: MV4-11 cells were inoculated into 12-well plates at a density of 800,000 cells/mL. After incubation overnight, each well was treated with different concentrations of 25c and Venetoclax alone or in combination. After treatment for 24 h, the cells were collected and washed with pre-cooled PBS. A protease inhibitor (cocktail) and RIPA buffer were added for cell lysis. The decomposed solution was centrifuged at 12,000 rpm for 15 min at 4 °C, and the extracted protein was located in the supernatant. The proteins in each sample were denatured by heating at 100 °C in loading buffer (5×) for 10 min. The same amount of proteins in each sample was separated by SDS-PAGE and then electrotransferred to a PVDF membrane (Merck Millipore, Billerica, MA, USA) and enclosed in 5% skim milk powder for 1 h. The primary antibody diluted with an immune response booster solution was incubated in a shaking bed at 4 °C overnight, and the horseradish (HRP)-conjugated second antibody diluted with 5% skim milk powder was incubated at room temperature for 1 h on the second day. After the PVDF membrane was washed with TBST, the target protein bands could be detected with chemiluminescent reagents (Millipore, Billerica, MA, USA) and visualized in the Tanon 5200 + fluorescence imager.
The primary antibodies Caspase 3 (including Cleaved Caspase-3) (sc-56053), Mcl-1 (94296S), Bcl-xL (ab98143), γ-H2AX (9718S), AcHH3 (Lys27) (8173S), AcHH4 (sc-377520), HH3 (ab1791), Ac-tubulin (sc-23950), HDAC6 (sc-28386), α-tubulin (sc-23948), GAPDH (sc-59540) and β-actin (8H10D10) were purchased from Abcam, Cell Signaling Technology and Santa Cruz Biotechnology.

HDAC9 = molecular target: T2, HDAC9 (Homo sapiens, UniProt Q9UKV0); assay: In vitro HDAC inhibition fluorescence assay, HDAC9; format: biochemical
T2 construct: purchased BPS Bioscience
Protocol: as §1

T2 sequence (Q9UKV0 whole entry): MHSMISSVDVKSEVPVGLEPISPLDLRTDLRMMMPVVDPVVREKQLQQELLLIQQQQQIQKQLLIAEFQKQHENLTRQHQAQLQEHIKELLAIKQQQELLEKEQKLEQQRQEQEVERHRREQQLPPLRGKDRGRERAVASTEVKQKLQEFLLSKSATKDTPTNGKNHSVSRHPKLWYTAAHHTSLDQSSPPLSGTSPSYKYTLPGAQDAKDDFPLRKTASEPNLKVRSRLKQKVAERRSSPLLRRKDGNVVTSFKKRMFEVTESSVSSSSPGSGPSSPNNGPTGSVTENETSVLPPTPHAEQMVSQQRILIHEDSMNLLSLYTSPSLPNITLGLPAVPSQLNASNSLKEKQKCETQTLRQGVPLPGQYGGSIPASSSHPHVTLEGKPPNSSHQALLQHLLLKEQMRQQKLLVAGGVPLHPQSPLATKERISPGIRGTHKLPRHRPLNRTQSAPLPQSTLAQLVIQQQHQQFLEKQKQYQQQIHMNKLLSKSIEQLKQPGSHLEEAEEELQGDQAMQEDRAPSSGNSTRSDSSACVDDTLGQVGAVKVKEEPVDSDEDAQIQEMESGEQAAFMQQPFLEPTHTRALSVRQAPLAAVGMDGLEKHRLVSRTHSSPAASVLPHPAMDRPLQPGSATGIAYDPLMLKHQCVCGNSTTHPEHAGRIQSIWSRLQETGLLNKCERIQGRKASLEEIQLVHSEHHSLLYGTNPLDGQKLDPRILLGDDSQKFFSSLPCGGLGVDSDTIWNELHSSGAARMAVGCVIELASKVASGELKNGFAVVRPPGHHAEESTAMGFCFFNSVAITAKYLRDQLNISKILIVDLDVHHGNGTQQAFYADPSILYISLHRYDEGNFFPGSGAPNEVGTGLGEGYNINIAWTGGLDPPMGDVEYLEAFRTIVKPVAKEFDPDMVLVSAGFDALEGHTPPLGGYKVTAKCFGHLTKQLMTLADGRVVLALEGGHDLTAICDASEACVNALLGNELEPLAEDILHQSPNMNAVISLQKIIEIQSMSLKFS

CCCNNC(=O)C=Cc1ccc(CNCCc2ccccc2)cc1 [Compound 25c, 3-(4-((Phenethylamino)methyl)phenyl)-N′-propylacrylohydrazide]
IC50 (HDAC6): > 10 µM | level of cleaved-caspase3 (MV4-11 cells; 25c monotherapy, 30 nM and 90 nM): No substantial alterations | level of acetyl-tubulin (MV4-11 cells): increased | level of acetylated histone H3 (AcHH3) (MV4-11 cells): significantly elevated | level of acetylated histone H4 (AcHH4) (MV4-11 cells): significantly elevated | IC50 (HDAC9): > 10 µM
